A short description of series [1]: Axial ligand exchange with DMSO, DMF or water followed by 1H-NMR. It counts as physicochemical.
The target in series [2] is T1, 3CL^pro (Severe acute respiratory syndrome coronavirus 2, UniProt P0DTD1). Particulars: for IC50: read-out: IC50 against 3CL^pro.
In series [3] the test system is SARS-CoV-2 infected Vero E6 cells.
Series [4] deals with SARS-CoV-2 infected Huh 7.5.1 cells. Particulars: for EC50: read-out: EC50 Huh 7.5.1.
In series [5] the test system is Huh 7.5.1 cells. The conditions noted are these: read-out: CC50 Huh 7.5.1.
Series [6] in a line: in vitro. The conditions noted are these: African green monkey.
Series [7] is described as follows: in vitro. The conditions noted are these: human.
Series [8] has as its system SARS-CoV-2 infected Huh 7.5.1 cells. Kind of series: microbe, parasite or virus in culture. The conditions noted are these: Severe acute respiratory syndrome coronavirus 2, Huh-7.5.1, 48 h, read-out: EC50 Huh 7.5.1.
Series [9] deals with dipeptidyl peptidase-4 (DPP4) (Homo sapiens, UniProt P27487). Kind of series: DPP4 enzymatic assay. The format is biochemical. The conditions noted are these: read-out: IC50 against DPP4; three independent experiments.
Chain of dipeptidyl peptidase-4 (DPP4) (P27487 whole entry): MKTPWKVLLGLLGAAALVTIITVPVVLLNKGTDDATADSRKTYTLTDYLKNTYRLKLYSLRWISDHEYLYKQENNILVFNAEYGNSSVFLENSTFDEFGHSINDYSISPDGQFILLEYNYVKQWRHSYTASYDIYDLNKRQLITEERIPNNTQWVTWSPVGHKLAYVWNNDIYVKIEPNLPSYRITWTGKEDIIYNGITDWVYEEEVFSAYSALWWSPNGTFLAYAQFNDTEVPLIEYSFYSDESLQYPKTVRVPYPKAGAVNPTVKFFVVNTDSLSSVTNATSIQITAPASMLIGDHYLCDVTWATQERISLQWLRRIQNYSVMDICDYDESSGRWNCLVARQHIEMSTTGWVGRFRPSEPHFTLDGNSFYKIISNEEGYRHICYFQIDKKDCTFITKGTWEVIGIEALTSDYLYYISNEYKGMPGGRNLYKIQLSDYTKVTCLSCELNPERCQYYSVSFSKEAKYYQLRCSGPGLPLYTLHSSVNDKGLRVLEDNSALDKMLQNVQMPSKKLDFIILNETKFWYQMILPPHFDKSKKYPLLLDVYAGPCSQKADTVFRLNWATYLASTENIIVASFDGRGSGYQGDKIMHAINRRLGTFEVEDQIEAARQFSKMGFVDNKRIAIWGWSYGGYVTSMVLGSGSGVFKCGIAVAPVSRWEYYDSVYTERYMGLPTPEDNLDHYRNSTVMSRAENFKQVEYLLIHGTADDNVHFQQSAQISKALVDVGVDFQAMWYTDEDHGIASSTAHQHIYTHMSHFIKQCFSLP
In series [10] the target is beta-secretase 1 (BACE1) (Homo sapiens, UniProt P56817). It counts as biochemical. Particulars: read-out: IC50 against BACE1; three independent experiments.
Chain of beta-secretase 1 (BACE1) (P56817 46-501): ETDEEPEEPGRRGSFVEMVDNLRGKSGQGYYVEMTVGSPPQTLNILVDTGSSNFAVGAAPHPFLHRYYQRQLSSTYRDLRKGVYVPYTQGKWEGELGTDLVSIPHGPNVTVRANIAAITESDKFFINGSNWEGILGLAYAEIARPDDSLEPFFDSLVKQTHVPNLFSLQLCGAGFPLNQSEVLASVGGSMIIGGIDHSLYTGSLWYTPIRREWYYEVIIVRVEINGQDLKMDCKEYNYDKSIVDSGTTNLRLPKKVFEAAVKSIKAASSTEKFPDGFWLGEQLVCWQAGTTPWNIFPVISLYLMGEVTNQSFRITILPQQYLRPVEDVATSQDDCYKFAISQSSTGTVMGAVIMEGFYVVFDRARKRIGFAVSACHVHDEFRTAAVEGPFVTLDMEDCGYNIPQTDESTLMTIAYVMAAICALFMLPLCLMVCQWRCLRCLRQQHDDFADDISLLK
For series [11], the target named is cathepsin B (Homo sapiens, UniProt P07858). Kind of series: Cathepsin B enzymatic assay. It counts as biochemical. Particulars: read-out: IC50 against Cathepsin B; three independent experiments.
The target of series [12] is cathepsin L (Homo sapiens, UniProt P07711). Kind of series: Cathepsin L enzymatic assay. The format is biochemical. Particulars: read-out: IC50 against Cathepsin L; three independent experiments.
Chain of cathepsin L (P07711 114-333): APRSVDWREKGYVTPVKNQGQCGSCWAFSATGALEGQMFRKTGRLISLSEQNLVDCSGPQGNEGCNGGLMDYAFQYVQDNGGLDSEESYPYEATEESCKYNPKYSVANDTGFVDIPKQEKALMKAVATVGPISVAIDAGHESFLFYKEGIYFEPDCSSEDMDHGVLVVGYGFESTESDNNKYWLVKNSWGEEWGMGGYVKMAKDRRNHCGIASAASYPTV
For series [13], the target named is SARS-CoV-2 Papain-like protease (PL^pro) (Severe acute respiratory syndrome coronavirus 2, UniProt P0DTD1). It counts as biochemical. Particulars: read-out: IC50 against PL^pro.
Series [14] has as its target Furin (Homo sapiens, UniProt P09958). It counts as biochemical. The conditions noted are these: read-out: IC50 against Furin; three independent experiments.
In series [15] the target is transmembrane serine protease 2 (TMPRSS2) (Homo sapiens, UniProt O15393). The series is described as follows: TMPRSS2 enzymatic assay. Particulars: read-out: IC50 against TMPRSS2; three independent experiments. It counts as biochemical.
Chain of transmembrane serine protease 2 (TMPRSS2) (O15393 whole entry): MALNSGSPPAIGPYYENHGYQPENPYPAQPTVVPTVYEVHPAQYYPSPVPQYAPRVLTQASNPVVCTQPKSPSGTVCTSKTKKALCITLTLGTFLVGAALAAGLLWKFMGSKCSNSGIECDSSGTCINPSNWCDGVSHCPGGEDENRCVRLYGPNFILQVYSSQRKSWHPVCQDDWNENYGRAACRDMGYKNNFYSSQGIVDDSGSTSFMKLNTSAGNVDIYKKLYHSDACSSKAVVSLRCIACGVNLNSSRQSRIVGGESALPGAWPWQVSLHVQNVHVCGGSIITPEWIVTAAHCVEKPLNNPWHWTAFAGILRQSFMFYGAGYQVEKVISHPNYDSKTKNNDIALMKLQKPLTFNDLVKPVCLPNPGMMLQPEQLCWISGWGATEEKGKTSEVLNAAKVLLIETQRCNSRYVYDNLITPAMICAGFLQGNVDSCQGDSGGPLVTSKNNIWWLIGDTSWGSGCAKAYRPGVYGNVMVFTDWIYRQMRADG
Series [16] deals with SARS-CoV-2 infected Vero E6 cells. It counts as cell-based. Particulars: immunofluorescence microscopy.
In series [17] the test system is Vero E6 cells. The conditions noted are these: read-out: CC50 Vero E6.
Series [18] in a line: Aqueous solubility tests. The format is physicochemical. The conditions noted are these: 0.4–0.1% DMSO or DMF in phosphate-buffered saline.
The target of series [19] is T1, 3CL^pro.
The target of series [20] is T1, 3CL^pro. This is another data set of the same source.

Read-outs that look alike come from different tables or passages of the source. Bounds are passed on as bounds.

In general, IC50 refers to the midpoint of a concentration-inhibition curve. In general, EC50 refers to the concentration needed to bring the measured effect to its halfway point.

Chain of Furin (P09958 108-794): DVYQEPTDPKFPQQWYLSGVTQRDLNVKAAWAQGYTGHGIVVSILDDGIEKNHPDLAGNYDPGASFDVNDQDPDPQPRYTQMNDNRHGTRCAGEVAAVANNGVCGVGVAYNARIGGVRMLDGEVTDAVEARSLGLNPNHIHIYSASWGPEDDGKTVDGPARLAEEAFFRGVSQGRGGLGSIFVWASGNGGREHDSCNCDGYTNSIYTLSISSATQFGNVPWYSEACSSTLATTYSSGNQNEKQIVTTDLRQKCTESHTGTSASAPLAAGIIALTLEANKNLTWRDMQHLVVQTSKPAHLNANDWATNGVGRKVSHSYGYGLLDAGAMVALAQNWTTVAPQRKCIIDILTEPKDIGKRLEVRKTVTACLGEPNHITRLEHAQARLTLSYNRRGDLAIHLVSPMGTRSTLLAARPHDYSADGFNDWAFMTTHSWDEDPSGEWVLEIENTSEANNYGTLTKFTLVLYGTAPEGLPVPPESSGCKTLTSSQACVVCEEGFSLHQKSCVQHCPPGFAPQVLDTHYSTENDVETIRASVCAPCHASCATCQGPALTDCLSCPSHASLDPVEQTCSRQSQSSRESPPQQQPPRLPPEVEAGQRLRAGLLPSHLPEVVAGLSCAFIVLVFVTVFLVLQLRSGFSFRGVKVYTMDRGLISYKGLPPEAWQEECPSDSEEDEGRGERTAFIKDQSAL

Consider `CS(C)=O.O=C([O-])c1ccccn1.[C-]#[O+].[C-]#[O+].[C-]#[O+].[Re+]` [1DMSO, [Re(pic)(CO)3(DMSO)]], for which the “aqueous stability of the DMSO adduct” value in series [1] (2 : 8 DMSO-d6 : H2O, up to 6 h) is given as “the majority of the compound remained as the DMSO adduct even after 6 h”. Further, in series [2], the “effect of extending the preincubation time on 3CL^pro inhibition” value is given as “strongly enhance the inhibitory activity over time” and the IC50 was found to be 16.5 ± 3.4 µM. Besides, in [3], the “SI Vero E6 (CC50/EC50; therapeutic index)” value is listed as above 9. Besides, in [4], the “SI Huh 7.5.1 (CC50/EC50; therapeutic index)” value is given as 9 and the EC50 was determined as 1.8 ± 0.5 µM. Besides, the CC50 in [5] stood at 16.5 ± 1.3 µM.
Turning to `CCC(CC)COC(=O)[C@H](C)N[P@](=O)(OC[C@H]1O[C@@](C#N)(c2ccc3c(N)ncnn23)[C@H](O)[C@@H]1O)Oc1ccccc1` [Remdesivir], in series [3] (Vero E6 cells), the “SI Vero E6 (CC50/EC50; therapeutic index)” value is above 4. Further, the “SI Huh 7.5.1 (CC50/EC50; therapeutic index)” value in [4] (Huh 7.5.1 cells) was above 500. The CC50 in series [6] and in [7] was above 20 µM in each case. Further, the EC50 in [8] is below 0.04 µM.
For the compound `Nc1cccc(C(=O)[O-])n1.[C-]#[O+].[C-]#[O+].[C-]#[O+].[Re+]` [Compound 40], the IC50 in series [2] is 10.9 ± 3.1 µM.
On the same count and under the same terms, under `COc1cccc(C(=O)[O-])n1.[C-]#[O+].[C-]#[O+].[C-]#[O+].[Re+]` [Compound 39] stands 8.5 ± 1.9 µM; under `O=C([O-])c1ncccc1F.[C-]#[O+].[C-]#[O+].[C-]#[O+].[Re+]` [Compound 2], 19 ± 3.7 µM.
Turning to `O=C([O-])c1cc(O)ccn1.[C-]#[O+].[C-]#[O+].[C-]#[O+].[Re+]` [Compound 18], the IC50 is above 100 µM in series [9]; 76 ± 8 µM in [10]; above 100 µM in series [11]; 67 ± 9 µM in [12]; above 100 µM in [13]; above 100 µM in series [14]. For the same compound, the IC50 in series [15] was above 100 µM; in [2] it was 4.6 ± 0.5 µM.
Regarding `O=C([O-])c1cccc(O)n1.[C-]#[O+].[C-]#[O+].[C-]#[O+].[Re+]` [Compound 38], in series [2], the IC50 is 8.8 ± 3.4 µM.
With `Nc1ccnc(C(=O)[O-])c1.[C-]#[O+].[C-]#[O+].[C-]#[O+].[Re+]` [Compound 20], the concentration for half-maximal inhibition (IC50) in series [2] amounted to 8.4 ± 2.2 µM.
As for `CN1CCN(C(=O)N[C@@H](Cc2ccccc2)C(=O)N[C@H](/C=C/S(=O)(=O)c2ccccc2)CCc2ccccc2)CC1` [K777], the “concentration protecting cells from viral infection” value in [16] was at most 125 nM. The “SI Vero E6 (CC50/EC50; therapeutic index)” value in series [3] (Vero E6 cells) is above 222. Further, the EC50 in series [3] (read-out: EC50 Vero E6) was 0.009 ± 0.002 µM; in series [4], above 2 µM. For the same compound, the CC50 in series [17] and in series [5] was above 2 µM throughout.
Turning to `O.O=C([O-])c1ccccn1.[C-]#[O+].[C-]#[O+].[C-]#[O+].[Re+]` [Compound 1, [Re(pic)(CO)3(H2O)]], the half-maximal inhibitory concentration (IC50) in series [9] is above 100 µM; in series [10], 83 ± 6 µM; in series [11], above 100 µM; in [12], 53 ± 7 µM; in series [13], above 100 µM; in series [14], above 100 µM. Further, the IC50 in series [15] is above 100 µM; in [2], 9.1 ± 1.8 µM. The “precipitate or aggregate formation by DLS” value in series [18] is given as “No particle formation or aggregation was observed”. In addition, the “time to full exchange of the axial ligand in DMF-d7” value in series [1] is listed as at most 6 h. Further, the “aqua ligand exchange in DMSO-d6” value in [1] (within 5 min) is listed as “rapid exchange of the aqua ligand with DMSO”. Besides, the “Re content bound to protein” value in [19] is given as 0.7 ± 0.2 equivalents of Re per 3CL^pro. Moreover, in series [20], the “adduct formation with 3CL^pro (deconvoluted mass spectrum)” value is reported as “a single attached metal complex”. Also, the “adduct formation with the GC376-3CL^pro adduct (binding competition)” value in [20] is given as “did not show the formation of new products”.

Values taken from PMC9848156 (Chemical Science, 2022).
